Results on 1 molecule are retold here after patent US7718641B2, “Pyrrolo [3,4-H] isoquinoline compounds and methods for modulating gated ion channels” (Aros Pharma ApS, priority 2005, dated 2010).

The assay deals with T1, heteromeric hASIC1a+3 (Homo sapiens, UniProt P78348+Q9UHC3).
T1 sequence (P78348 1-528): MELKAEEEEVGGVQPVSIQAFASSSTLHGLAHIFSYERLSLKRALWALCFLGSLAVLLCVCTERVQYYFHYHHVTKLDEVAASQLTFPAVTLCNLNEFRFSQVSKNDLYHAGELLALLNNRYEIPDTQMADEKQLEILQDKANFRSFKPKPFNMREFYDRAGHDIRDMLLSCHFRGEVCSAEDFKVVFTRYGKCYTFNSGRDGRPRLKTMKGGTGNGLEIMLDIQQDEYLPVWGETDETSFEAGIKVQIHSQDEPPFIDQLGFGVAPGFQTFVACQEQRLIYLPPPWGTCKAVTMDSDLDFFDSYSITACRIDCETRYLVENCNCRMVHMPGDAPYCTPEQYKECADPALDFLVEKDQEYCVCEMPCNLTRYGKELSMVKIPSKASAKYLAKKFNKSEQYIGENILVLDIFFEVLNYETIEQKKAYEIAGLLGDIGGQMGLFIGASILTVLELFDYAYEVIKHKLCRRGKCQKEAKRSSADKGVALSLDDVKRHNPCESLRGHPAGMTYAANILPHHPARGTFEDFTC
T1 sequence (Q9UHC3 1-531): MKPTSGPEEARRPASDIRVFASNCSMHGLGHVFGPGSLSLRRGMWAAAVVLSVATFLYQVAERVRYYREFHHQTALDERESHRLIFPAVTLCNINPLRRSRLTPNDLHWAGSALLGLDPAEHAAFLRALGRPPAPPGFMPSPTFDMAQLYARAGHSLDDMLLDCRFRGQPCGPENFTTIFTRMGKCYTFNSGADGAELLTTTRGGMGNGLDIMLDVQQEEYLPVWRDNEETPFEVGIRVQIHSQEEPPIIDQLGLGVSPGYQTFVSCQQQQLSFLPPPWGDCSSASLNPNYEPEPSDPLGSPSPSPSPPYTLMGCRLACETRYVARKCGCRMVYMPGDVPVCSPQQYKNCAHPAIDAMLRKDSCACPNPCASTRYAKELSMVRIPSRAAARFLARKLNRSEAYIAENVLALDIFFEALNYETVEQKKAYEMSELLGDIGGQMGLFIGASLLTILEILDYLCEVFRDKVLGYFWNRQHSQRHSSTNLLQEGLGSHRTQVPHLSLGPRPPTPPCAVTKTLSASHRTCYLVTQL
Briefly: Two-electrode voltage clamp in Xenopus laevis oocytes expressing heteromeric hASIC1a+3. Also noted: expressed in transfected cells. Format: cell-based. Particulars: 30 μM, OpusExpress. As for the experimental part:
Two-electrode voltage clamp electrophysiological assays in Xenopus laevis oocytes expressing gated ion channels are performed as follows:
Oocytes are surgically removed from adult Xenopus laevis and treated for 2 h at room temperature with 1 mg/ml type I collagenase (Sigma) in Barth's solution under mild agitation. Selected oocytes at stage IV-V are defolliculated manually before nuclear microinjection of 2.5-5 ng of a suitable expression vector, such as pcDNA3, comprising the nucleotide sequence encoding a gated ion channel subunit protein. In such an experiment, the oocytes express homomultimeric proton-gated ion channels on their surface. In an alternate experiment, one, two, three or more vectors comprising the coding sequences for distinct gated ion channel subunits are co-injected in the oocyte nuclei. […] After 2-4 days of expression at 19° C. in Barth's solution containing […] gentamicin and 1.8 mM CaCl2, gated ion channels are activated by applying an acidic solution (pH <7) and currents are recorded in a two electrode voltage-clamp configuration, using an OC-725B amplifier (Warner Instruments). Currents are acquired and digitized at 500 Hz on an Apple Imac G3 computer with an A/D NB-MIO-16XL interface (National Instruments) and recorded traces are post-filtered at 100 Hz in Axograph (Axon Instruments) (Neher, E. and Sakmann, B. (1976) Nature 260:799-802). […]
A general note: Two-electrode voltage clamp is typically applied to oocytes expressing channels or transporters.

For `COc1ccc(F)cc1-c1cc2c(c3c1CCN(C)C3)NC(=O)/C2=N/O` [Compound A, 5-(5-fluoro-2-methoxyphenyl)-6,7,8,9-tetrahydro-3-(hydroxyimino)-8-methyl-1H-pyrrolo[3,2-h]isoquinoline-2(3H)-one], the “effect on inward currents elicited by pH 6.5, heteromeric hASIC1a+3” value is recorded as “effectively modulates the activity”.
